The source of these data is patent US3997557A, “Substituted N-aminoalkylpyrroles” (American Hoechst Corporation, priority 1974, dated 1976).

Experiment [1] concerns carrageenin-induced rat paw edema. The experiment is described as follows: Carrageenin-induced rat paw edema antiinflammatory assay. The experiment is classed as in vivo. As to conditions: 200 mg/kg of body weight. An excerpt:
The compounds of this invention are useful as antiinflammatory agents because of their ability to suppress inflammation in mammals. […] Exp. Biol. Med. III, 544 (1962)].

The test system of a further experiment is central nervous system. The experiment is described as follows: Mouse observation procedure of S. Irwin, central nervous system depressant effects (tranquilizer). The experiment is classed as in vivo. The settings on record: male COBS mice, behavior and reflex depression, muscle relaxation, read-out: minimum effective dose (MED)/Kilogram of body weight. The method, then:
The compounds of the invention are useful as tranquilizers because of their depressant effects on the central nervous system. The depressant effects on the central nervous system were evaluated according to the mouse observation procedure of S. Irwin, Psychopharmacologia, 13, 222 (1968). Male COBS mice are dosed with the drug, and its effects on behavior and reflex depression together with muscle relaxation determined by the degree of deviation from control scores, with activity expressed in terms of minimum effective dose (MED). The effectiveness of compounds of the invention as tranquilizers is illustrated in Table I below.

Experiment [2] deals with spontaneous hypertensive rat. Briefly: Lowering of blood pressure in the spontaneous hypertensive rat, indirect tail cuff method. The experiment is classed as in vivo. As to conditions: 100 mg/kg of body weight. The procedure: The compounds of this invention are also useful as antihypertensive agents because of their ability to lower blood pressure in mammals. […] 135. For example, at a dose of 100 mg/kg of body weight, the compounds shown in Table III below effect the corresponding decrease in systolic blood pressure.

The subject of a further experiment is isolated rabbit atrium. The experiment is described as follows: Isolated rabbit atrium, increase in functional refractory period (antiarrhythmic). The settings on record: Oryctolagus cuniculus; 10^-5 molar. The procedure:
The compounds of the invention are useful as antiarrhythmic agents because of their ability to alleviate cardiac arrhythmias. […] 198] wherein the compounds effect an increase in the functional refractory period. Compounds are dissolved in Krebs-Henseleit solution, and the percent change in the functional refractory period is monitored with an oscilloscope. […] Similarly at a concentration of 10^-^6 molar 1-(3-dimethylaminopropyl)-2-(p-bromophenyl)-4,5,6,7-tetrahydroindole hydrochloride and 1-(2-methylaminoethyl)-2-phenyl-1,4,5,6,7,8-hexahydrocyclohepta[b]pyrrole hydrochloride each effect a 150% increase in the functional refractory period.

Counter-ions that a name gives are not always drawn.

For `CCN(CC)CCCn1c(-c2ccccc2)cc2c1CCCCC2.Cl` [Example 41, 1-(3-diethylaminopropyl)-2-phenyl-1,4,5,6,7,8-hexahydrocyclohepta[b]pyrrole hydrochloride], 200 mg/kg produced 50% inhibition in vivo in experiment [1]. The minimal effective dose in the experiment on central nervous system is 50 mg/kg. Besides, the “decrease in systolic blood pressure” value in experiment [2] is 49 mm Hg. The activation at 10 µM in the experiment with isolated rabbit atrium was found to be 264%.
`CN(C)CCCn1c(-c2ccccc2)cc2c1CCCCC2.Cl` [Example 40, 1-(3-dimethylaminopropyl)-2-phenyl-1,4,5,6,7,8-hexahydrocyclohepta[b]pyrrole hydrochloride]: the minimal effective dose in the experiment on central nervous system is 25 mg/kg. The “decrease in systolic blood pressure” value in experiment [2] stood at 50 mm Hg. The same compound had an activation at 10 µM with isolated rabbit atrium of 275%.
With `CNCCCn1c(-c2ccccc2)cc2c1CCCCC2` [Example 39, 1-(3-methylaminopropyl)-2-phenyl-1,4,5,6,7,8-hexahydrocyclohepta[b]pyrrole . HCl], in the experiment with central nervous system, the minimal effective dose amounted to 50 mg/kg. Besides, the “decrease in systolic blood pressure” value in experiment [2] was found to be 42 mm Hg. For the same compound, in the experiment on isolated rabbit atrium, the activation at 10 µM amounted to 214%.
Turning to `CN(C)CCCn1c(-c2ccccc2)cc2c1CCc1ccccc1-2` [Example 31, hydrochloride], 200 mg/kg produced 56% inhibition in vivo in experiment [1]. Also, the minimal effective dose in the experiment with central nervous system was 20 mg/kg. In experiment [2], the “decrease in systolic blood pressure” value is listed as 30 mm Hg.
